The record followed here is patent publication US20210046124A1, “HUMAN FUNCTIONAL CORNEAL ENDOTHELIAL CELL AND APPLICATION THEREOF” (KYOTO PREFECTURAL PUBLIC UNIVERSITY CORPORATION, priority 2016, published 2021).

Where “and” joins values, the source holds several entries; their conditions need not be identical. Equal values may be shown once. Entries after “also recorded” stand apart in the source; their conditions may differ. Where a name gives a salt, the structure may show the parent alone. A value given as a limit tells only on which side of the number the result lay.

Type in all cases: cell-based, human
The test system of assay [1] is cultured HCECs. Nature of the assay: Centrifugation cell attachment assay: coated Descemet's membrane components and cell suspension vehicles. Particulars: for binding / distribution of cultured HCECs in coated wells: U-bottomed 96-well plates coated with the component, 200×g for 2 minutes, Opti-MEM; for minimum concentration necessary for the observed cell binding: coating concentration. Here is the method: Cell attachment to laminins, […], proteoglycans and glycoprotein was tested by the centrifugation cell attachment assay described previously (Friedlander et al., 1998. J. Cell Biol. 107: p 2329) with some modifications. Laminin-521, -511, -411, and -332 were purchased from Veritas (Tokyo, Japan). Perlecan, Agrin, Nidogen-1, TSP-1 and Fibulin 5 were purchased from R&D Systems (Minneapolis, Minn.). Type IV collagen was purchased from BD Biosciences (San Jose, Calif., USA).
Each well of a U-shaped 96-well Maxisorp plate (Nunc) was coated with 40 .micro.l of laminin, collagen, proteoglycan or glycoprotein solution overnight at 4 degrees Celsius. The wells were washed three times with PBS (−) and blocked with 1% BSA in 0.1 M NaHCO3 (pH 8.0) for 1 hour at room temperature. The cultured HCECs were suspended in Opti-MEM, Opeguard-MA (Senju Pharmaceutical, Osaka, Japan) or BSS-Plus (Alcon Laboratories, Fort Worth, Tex., USA) at a concentration of 1×10^5 cells/mL, and 0.1 mL of the cell suspension was added to each well and incubated for 10 minutes. The plate was then centrifuged at 200×g for 2 minutes. The bright-field Z stack images were captured by a BZ-9000 microscope (Keyence, Osaka, Japan) at 2× objective magnification and omnifocal images were created from these images using BZ-II Analyzer software. In accordance with the description by Friedlander et al (Friedlander et al., 1998. J. Cell Biol. 107: p 2329), the cells were centrifuged into a pellet at the bottom of the well on non-adhesive substrates. As the adhesiveness of the substrate increased, more cells bound to the substrates along the wall of the well. Bond to the substrate is detected in a circular area with a measurable diameter at the bottom or the well. On strongly adhesive substrates, cells were distributed more or less uniformly on the well (Grumet M, Flaccus A, and Margolis R U. J. Cell Biol. 1993; 120:815-824).
As a method for assessing the attachment ability of HCECs, this Example performed a centrifugation cell attachment assay [Friedlander et al., 1998. J. Cell Biol. 107: p 2329] with some modification (FIG. 36). The cultured HCECs were detached from culture dishes as described in (Materials and Methods) and cell suspension was prepared at a concentration of 1×10^5 cells/ml. 100 .micro.l of the cell suspension was added to each well of the U-bottomed 96-well plates coated with laminin-511, laminin-411, Type IV collagen or other components of Descemet's membrane listed in Table 6. The plate was incubated for 10 minutes at room temperature and then centrifuged at 200×g for 2 minutes. The attached cells were assessed under a BZ-9000 microscope system as described in (Materials and Methods).

For assay [2], the system named is cultured HCECs. Nature of the assay: Flow cytometry (FACS) of surface CD markers CD44, CD166, CD24, CD26, CD105 of cultured HCECs; E-ratio. Particulars: for effect on the E-ratio: presence of the agent during culture. From the text: FIG. 68 is a diagram showing the method to estimate the content of effector (E-ratio) in a cultured cell population by FACS analysis. The gate is set as followings in measurements using PE-Cy7-labeled anti-human CD44 antibodies (BD Biosciences) and setting the Area Scaling Factor of Blue laser of FACS Canto II to 0.75 and voltage of PE-Cy7 to 495. First, fractions A, B, C, and D are set in the dot plot (top row left) where the X axis is CD24 and the Y axis is CD166. At this time, fraction A is CD24 negative and CD166 positive, fraction B is CD24 positive and CD166 positive, fraction C is CD24 negative and CD166 negative, and fraction D is CD24 positive and CD166 negative. The proportion of fraction B when target cells for analysis are 100% is considered the content of non-intended cell C [CD24 positive cell]. […] Further, a separate dot plot where the X axis is CD44 and the Y axis is CD26 is created and fractions a′, b′, c′, and d′ are set as in the diagram on the top row right side. The proportion of fraction B when the target cells of analysis is 100% is the non-intended cell B [CD26 positive cell] content.
Method of calculating the E-ratio: Typically, fluorescence intensities differ depending on the type of fluorescence of a label or equipment setting. In a measurement under the following condition: PE-Cy7-labeled anti-human CD44 antibody (BD Biosciences) is used and Area Scaling Factor of Blue laser of FACS Canto II is set to 0.75 and the voltage of PE-Cy 7 is set to 495, gates are set as follows: First, fractions A, B, C, and D are set in a dot plot (FIG. 68, top row left side) with X axis as CD24 and Y axis as CD166. At this time, fraction A is CD24 negative and CD166 positive, fraction B is CD24 positive and CD166 positive, fraction C is CD24 negative and CD166 negative, and fraction D is CD24 positive and CD166 negative. The proportion of fraction B, when target cells for analysis is 100%, is considered the content of non-intended cell C [CD24 positive cell]. […] Further, a separate dot plot where the X axis is CD44 and the Y axis is CD26 is created and fractions a′, b′, c′, and d′ are set as in the diagram on the top row right side of FIG. 68. The proportion of fraction B, when the target cell of analysis is 100%, is the non-intended cell B [CD26 positive cell] content (see FIG. 68).
HCECs were collected from the culture dish by TrypLE Select treatment as described above and suspended at a concentration of 4×10^6 cells/mL in FACS buffer (PBS containing 1% BSA and 0.05% NaN3). An equal volume of antibody solution was added and incubated for 2 hours at 4.degrees. C. The antibody solutions comprised the following: FITC-conjugated anti-human CD26 mAb, PE-conjugated anti-human CD166 mAb, PerCP-Cy5.5 conjugated anti-human CD24 mAb, PE-Cy7-conjugated anti-human CD44 (all from BD Biosciences), and APC-conjugated anti-human CD105 (eBioscience, San Diego, Calif., USA). After washing with FACS buffer, the HCECs were analyzed with FACS Canto II (BD Biosciences).
In general terms: A flow cytometer gives signals particle by particle.

Assay [3] deals with HCECs. The experiment in a line: Trichostatin A (TSA) treatment of HCECs. Particulars: medium supplemented with 0.5 .micro.M Trichostatin A. Here is the method: HCECs with treated with Trichostatin A as follows. The Descemet's membranes with the corneal endothelial cells were stripped from donor corneas and digested at 37.degrees. C. with 1 mg/mL collagenase A (Roche Applied Science, Penzberg, Germany) for 2 hours. The HCECs obtained from a single donor cornea were seeded in one well of a Type I collagen-coated 6-well cell culture plate (Corning Inc., Corning, N.Y., USA). The Trichostatin A-containing medium was prepared with Opti-MEM-I (Life Technologies Corp., Carlsbad, Calif., USA), 8% fetal bovine serum (FBS), 5 ng/mL epidermal growth factor (EGF; Life Technologies), 20 .micro.g/mL ascorbic acid (Sigma-Aldrich Corp.), 200 mg/L calcium chloride (Sigma-Aldrich Corp., St. Louis, Mo., USA), 0.08% chondroitin sulfate (Wako Pure Chemical Industries, Ltd., Osaka, Japan), 50 .micro.g/mL of gentamicin, and 0.5 .micro.M of Trichostatin A. The HCECs were cultured using the Trichostatin A-containing medium at 37.degrees. C. in a humidified atmosphere containing 5% CO2. The culture medium was changed twice a week. The HCECs were subcultured at ratios of 1:3 using 10× TrypLE Select (Life Technologies) for 12 minutes at 37.degrees. C. when they reached confluence. The cells were cultured for 30 days. The HCECs from the second passage were used for observation with a fluorescence microscope.

Assay [4] relates to cHCECs. The experiment in a line: Phase contrast microscopy: morphology, cell area distribution, cultured cell density. An excerpt:
Phase contrast microscope images were taken by an inverted microscope system (CKX41, Olympus, Tokyo, Japan). For the cell area distribution analysis, the cHCECs were washed with PBS (−) three times and the phase contrast images were acquired by a BZ X-700 Microscope system (Keyence, Osaka, Japan). The cell area distributions were quantified by BZ-H3C Hybrid cell count software (Keyence).
Phase contrast images ware taken by an inverted microscope system (CKX41, Olympus, Tokyo, Japan). For the cell area distribution analysis, the cHCECs were washed with PBS (−) three times and phase contrast images were acquired by a BZ X700 Microscope system (Keyence, Osaka, Japan). The area distributions were quantified by BZ-H3C Hybrid cell count software (Keyence).

[5] abbreviates: addition of Y-27632 during the culture for 47 days.

On to “laminin-521: laminin purchased from Veritas, coating protein”, for which the “binding / distribution of cultured HCECs in coated wells” value (“binding / distribution” for short) in assay [1] is recorded as “uniformly distributed; also recorded: concentration dependent manner”.
Turning to “Agrin: purchased from R&D Systems, Descemet's membrane component”, the “minimum concentration necessary for the observed cell binding” value (“minimum concentration necessary” below) in assay [1] amounted to 400 nM.
For `CC(/C=C/C(=O)NO)=C\[C@@H](C)C(=O)c1ccc(N(C)C)cc1` [Trichostatin A], the “effect on the E-ratio” value in assay [2] is reported as “improved the E-ratio”. The “differentiation into mature cHCECs” value in assay [3] is listed as “can be promoted to differentiate into mature cHCECs”.
Turning to “laminin-332: laminin purchased from Veritas, coating protein”, the “binding / distribution” value in assay [1] is “formed a circular pellet”.
On to “TSP-1: purchased from R&D Systems, Descemet's membrane component”, for which, in assay [1], the “minimum concentration necessary” value was 400 nM.
As to “Perlecan: purchased from R&D Systems, Descemet's membrane component”, the “minimum concentration necessary” value in assay [1] was 400 nM.
For the molecule `C[S+]([O-])c1ccc(-c2nc(-c3ccc(F)cc3)c(-c3ccncc3)[nH]2)cc1` (centres unmarked) [SB203580, 4-(4-fluorophenyl)-2-(4-methylsulfinylphenyl)-5-(4-pyridyl)-1H-imidazole], in assay [4] (inhibitor added to the entire culture, cultures a5, a1, a2), the “senescent form of cHCEC cultures” value was “did not have any senescent form at first glance”.
For the molecule “laminin-411: laminin purchased from Veritas, coating protein”, in assay [1], the “binding / distribution” value is listed as “formed a circular pellet”; the “minimum concentration necessary” value is 1.25 nM and 2.85 .micro.g/mL.
Regarding “laminin-511: laminin purchased from Veritas, coating protein”, in assay [1], the “binding / distribution” value is reported as “uniformly distributed; also recorded: concentration dependent manner”; the “minimum concentration necessary” value was 4 pM and 3 ng/mL.
Consider `C[C@@H](N)[C@H]1CC[C@H](C(=O)Nc2ccncc2)CC1` [Lot Y-27632, (R)-(+)-trans-(4-pyridyl)-4-(1-aminoethyl)-cyclohexanecarboxamide dihydrochloride monohydrate], for which the E-ratios in assay [2] (Y-27632 added every three days throughout the entire culture period, TGF-beta signaling not inhibited, seeding density higher than 400 cells/mm^2) is given as at least 90%. The “improvement (E-ratio, increase in the proportion of intermediately differentiated corneal endothelial cells)” value was “very little improvement” in assay [2] (about 1 .micro.M), “little” in assay [2] (about 5 .micro.M) and “More of an effect” in assay [2] (about 10 .micro.M or more). Moreover, the E-Ratio in assay [2] (addition of Y-27632 throughout 35 days of culture, 6th passage) was 52.3%. Besides, the “effect on the E-ratio” value in assay [2] is “further improved the E-ratio”. The average cell area in assay [4] (setting [5]) is recorded as 216 .micro.m^2. In assay [4] (setting [5]), this molecule returned a cultured cell density of 2582 cells/mm^2.
